Experimental data: US10052297B2, “L-serine to be used as a drug for preventing and/or treating an inflammatory response of the skin” (PIERRE FABRE DERMO-COSMETIQUE, priority 2009, dated 2018)
Marks after values point to notes of the source that are not given here.

T1: PAR2 (Homo sapiens, UniProt P55085)
T1 construct: HaCaT cell line keratinocyte models were used; endogenous in cells; host or cells: HaCaT keratinocytes
T1 sequence (P55085 26-397): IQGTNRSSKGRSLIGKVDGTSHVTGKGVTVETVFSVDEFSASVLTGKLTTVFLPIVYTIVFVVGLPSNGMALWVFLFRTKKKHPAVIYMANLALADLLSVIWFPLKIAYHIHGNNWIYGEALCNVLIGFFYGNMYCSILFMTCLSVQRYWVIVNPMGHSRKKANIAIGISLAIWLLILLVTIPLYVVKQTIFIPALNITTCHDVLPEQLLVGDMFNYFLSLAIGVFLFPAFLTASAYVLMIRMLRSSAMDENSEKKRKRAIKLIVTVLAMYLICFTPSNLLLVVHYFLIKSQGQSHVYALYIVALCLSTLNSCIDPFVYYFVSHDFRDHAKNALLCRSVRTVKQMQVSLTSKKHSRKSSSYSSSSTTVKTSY


Legend:
[1] = molecular target: T1, PAR2; assay: Inhibition of trypsin-induced calcium flow (PAR2 activation) in HaCaT keratinocytes, Fluo-4/AM fluorescence; assay type: cell-based; conditions: HaCaT cells, 10 nM trypsin stimulation; for inhibition at 3 µM / inhibition at 10 µM / inhibition at 30 µM / inhibition at 100 µM: 30 min incubation, read-out: Anti-PAR2 activity (percentage of inhibition); for Inhibition of PAR2 activation (result in words): 3-100 μM
Protocol: HaCaT cell line keratinocyte models were used. L-serine and L-asparagine were purchased from EVONIK, L-arginine was purchased from AMINO and L-valine was purchased from AJINOMOTO.
A fluorescent probe (Fluo-4/AM at a concentration of 2 μM) is incorporated for 30 minutes in cells inoculated in 96-well plates and the active agent to be tested is incubated for 30 minutes. Only the deesterified form of the probe bound to calcium ions is excitable under 485 nm fluorescence and emits at 535 nm. The incubation buffer used is HBSS buffer supplemented with HEPES (20 mM) and with water-soluble probenecid (2.5 mM).
The cells were stimulated with 10 nM trypsin.
The reference molecule used is a STI molecule (soybean trypsin inhibitor) at a concentration of 1 μM.
L-serine and L-asparagine, solubilized at 50 mg/ml in distilled water (475.8 mM for L-serine and 378.4 mM for L-asparagine) were evaluated at concentrations of 3 μM, 10 μM, 30 μM and 100 μM.
L-arginine was solubilized at 100 mM in distilled water.
L-valine was solubilized at 200 mM in distilled water.
Calcium flow, which represents PAR2 activation, is measured by fluorescence, well by well in real time according to kinetics before and after the injection of trypsin. The percentage of inhibition of PAR2 activation corresponds to the percentage of inhibition of calcium flow.

[2] = test system: IL-8 secretion; assay: Inhibition of IL-8 secretion stimulated by trypsin in HaCaT keratinocytes (sandwich ELISA); assay type: cell-based; conditions: Homo sapiens, 10 nM trypsin 24 h, n=2 experiments
Protocol: The test performed permitted to evaluate the anti-inflammatory activity of L-serine in terms of IL-8 secretion, stimulated by trypsin, on human keratinocytes from a cell line (HaCaT). Principle of the IL-8 Assay: Sandwich ELISA for Quantification of IL-8 Secreted in Culture Supernatants. IL-8 is captured by a monoclonal antibody bound to microplate wells. A second anti-IL-8 antibody is added. This antibody is biotinylated, which enabled the binding of streptavidin coupled with peroxidase activity. Adding the peroxidase substrate makes it possible to quantify the IL-8 concentration in each well by measuring absorbance at 450 nm. The HaCaT human keratinocyte cell line was used. A 96-well microplate for cell culture and a plate reader with injectors, Mithras LB940TM (Berthold Technologies®), were used. 10 nM trypsin was used as stimulation agent. Reagents from the Human CXCL8/IL8 DuoSet R&D System kit (ref. DY208(E)) were used. L-serine, solubilized at 475.8 mM in distilled water, was evaluated at concentrations of 3 μM, 10 μM, 30 μM, 100 μM, 300 μM and 1 mM. L-serine is incubated for 1 hour at 37° C. (HBSS buffer). The stimulation agent (trypsin […]) is then added and incubated for 24 hours at 37° C. The culture supernatants are recovered, centrifuged at +4° C. and then stored at -20° C. The IL-8 concentrations of the samples are calculated from a standard curve of the following equation: OD=(Bmax*[IL-8])/(Kd+[IL-8]) Next, the percentages of inhibition of IL-8 secretion are calculated according to the following formula: […]

Row | Molecule | inhibition at 3 µM [1] | inhibition at 10 µM [1] | inhibition at 30 µM [1] | inhibition at 100 µM [1] | Inhibition of PAR2 activation (result in words) [1] | inhibition at 10 µM ([2]; 10 μM) | inhibition at 30 µM ([2]; 30 μM) | inhibition at 100 µM ([2]; 100 μM) | inhibition at 1000 µM ([2]; 1 mM) | Anti-PAR2 activity (percentage of inhibition) ([1]; reference at 1 μM)
1 | N=C(N)NCCC[C@H](N)C(=O)O [L-arginine, reference compound] | -17% | 12% | -11% | 1% | does not significantly inhibit PAR2 activation | – | – | – | – | –
2 | NC(=O)CC(N)C(=O)O [L-asparagine, asparagine-amino-succinic acid] | 23% | 23% | 22% | 31% | inhibit PAR2 activation, but not in a dose-dependent manner | – | – | – | – | –
3 | NC(CO)C(=O)O [L-serine, 2-amino-3-hydroxypropanoic acid] | 3% | 13% | 20% | 33% | inhibit PAR2 activation in a dose-dependent manner | 47% | 50% | 66% | 74% | –
4 | CC(C)[C@H](N)C(=O)O [L-valine] | 6% | 26% | 20% | 34% | inhibit PAR2 activation | – | – | – | – | –
5 | STI: reference molecule, STI molecule (soybean trypsin inhibitor) at a concentration of 1 μM (protein, UniProt P01070 25-205, looked up) Trypsin inhibitor A: DFVLDNEGNPLENGGTYYILSDITAFGGIRAAPTGNERCPLTVVQSRNELDKGIGTIISSPYRIRFIAEGHPLSLKFDSFAVIMLCVGIPTEWSVVEDLPEGPAVKIGENKDAMDGWFRLERVSDDEFNNYKLVFCPQQAEDDKCGDIGISIDHDDGTRRLVVSKNKPLVVQFQKLDKESL | – | – | – | – | – | – | – | – | – | 106-109%***
